Test results taken from ChEMBL document CHEMBL5154842, “Unique Carbazole-Oxadiazole Derivatives as New Potential Antibiotics for Combating Gram-Positive and -Negative Bacteria” (J Med Chem, 2022).
Values after ≈ are worked out from the molar mass of the structure shown. Active and inactive are the calls of the source. The calls are words filed in the database; no cut-off is given here.

What was measured:
Staphylococcus aureus [1] = test: Antibacterial activity against methicillin-resistant Staphylococcus aureus N315 assessed as inhibition of bacterial growth incubated for 24 hrs by CLSI protocol based two fold serial dilution method; format: functional
Enterococcus faecalis = test: Antibacterial activity against Enterococcus faecalis assessed as inhibition of bacterial growth incubated for 24 hrs by CLSI protocol based two fold serial dilution method; format: functional
Staphylococcus aureus [2] = test: Antibacterial activity against Staphylococcus aureus assessed as inhibition of bacterial growth incubated for 24 hrs by CLSI protocol based two fold serial dilution method; format: functional
Staphylococcus aureus [3] = test: Antibacterial activity against Staphylococcus aureus 25923 assessed as inhibition of bacterial growth incubated for 24 hrs by CLSI protocol based two fold serial dilution method; format: functional
Staphylococcus aureus [4] = test: Antibacterial activity against Staphylococcus aureus 29213 assessed as inhibition of bacterial growth incubated for 24 hrs by CLSI protocol based two fold serial dilution method; format: functional
Klebsiella pneumoniae = test: Antibacterial activity against Klebsiella pneumonia assessed as inhibition of bacterial growth incubated for 24 hrs by CLSI protocol based two fold serial dilution method; format: functional
Escherichia coli [5] = test: Antibacterial activity against Escherichia coli assessed as inhibition of bacterial growth incubated for 24 hrs by CLSI protocol based two fold serial dilution method; format: functional
Escherichia coli [6] = test: Antibacterial activity against Escherichia coli 25922 assessed as inhibition of bacterial growth incubated for 24 hrs by CLSI protocol based two fold serial dilution method; format: functional
Pseudomonas aeruginosa [7] = test: Antibacterial activity against Pseudomonas aeruginosa assessed as inhibition of bacterial growth incubated for 24 hrs by CLSI protocol based two fold serial dilution method; format: functional
Pseudomonas aeruginosa [8] = test: Antibacterial activity against Pseudomonas aeruginosa ATCC 27853 assessed as inhibition of bacterial growth incubated for 24 hrs by CLSI protocol based two fold serial dilution method; format: functional
Acinetobacter baumannii = test: Antibacterial activity against Acinetobacter baumannii assessed as inhibition of bacterial growth incubated for 24 hrs by CLSI protocol based two fold serial dilution method; format: functional
Pseudomonas aeruginosa [9] = test: Antibacterial activity against Pseudomonas aeruginosa ATCC 27853 assessed as change in susceptibility at sub-MIC treated over 9 serial passages measured after 9 days by resistance development assay; format: functional, organism-based; settings: time 9.0 day
Staphylococcus aureus [10] = test: Antibacterial activity against methicillin-resistant Staphylococcus aureus N315 assessed as change in susceptibility at sub-MIC treated over 9 serial passages measured after 9 days by resistance development assay; format: functional, organism-based; settings: time 9.0 day
Staphylococcus aureus [11] = test: Antibacterial activity against methicillin-resistant Staphylococcus aureus N315 assessed as inhibition of bacterial growth at 0.5 to 16 ug/ml measured after 24 hrs by microplate reader assay; format: functional, organism-based; settings: dose 0.5-16 µg/ml
Staphylococcus aureus [12] = test: Antibacterial activity against methicillin-resistant Staphylococcus aureus N315 assessed as increase in germicidal effect at 0.5 ug/ml measured after 7 hrs by microplate reader assay; format: functional, organism-based; settings: dose 0.5 µg/ml
[13] = Hemolytic activity in human RBC assessed as hemolysis at 1 to 32 ug/ml measured after 60 mins by microplate reader assay relative to control; format: toxicity, cell-based, Erythrocyte; settings: red blood cells (erythrocytes), at 1 to 32 µg/mL, dose 1-32 µg/ml, read-out: Activity
Cell membrane [14] = test: Induction of inner membrane permeabilization in methicillin-resistant Staphylococcus aureus N315 assessed as increase in PI uptake by measuring increase in fluorescence intensity at 1 to 8 ug/ml incubated for 30 mins by calcein-AM/PI staining based fluorescence microscopic analysis; settings: dose 1-8 µg/ml, DDE = dose-dependent effect
Cell membrane [15] = test: Induction of cell membrane disruption in methicillin-resistant Staphylococcus aureus N315 assessed as increase in protein leakage at 0.5 to 6 ug/ml incubated under agitation condition by Bradford assay; settings: dose 0.5-6 µg/ml
Cell membrane [16] = test: Induction of cell membrane disruption in methicillin-resistant Staphylococcus aureus N315 assessed as increase in nucleotides leakage at 0.5 to 6 ug/ml incubated under agitation condition by UV absorption based analysis; format: subcellular; settings: dose 0.5-6 µg/ml
Staphylococcus aureus [17] = test: Antibacterial activity against methicillin-resistant Staphylococcus aureus N315 assessed as inhibition of bacterial growth at 0.25 to 64 ug/ml incubated for 24 hrs by Alamar blue assay; format: functional, organism-based; settings: dose 0.25-64 µg/ml
Staphylococcus aureus [18] = test: Antibacterial activity against methicillin-resistant Staphylococcus aureus N315 assessed as increase in germicidal effect at 4 ug/ml measured after 7 hrs by microplate reader assay; format: functional, organism-based; settings: dose 4.0 µg/ml
Erythrocyte = test: Hemolytic activity in human RBC assessed as hemolysis rate at 1 to 32 ug/ml measured after 60 mins by microplate reader assay; format: toxicity, cell-based; settings: 1 h, dose 1-32 µg/ml
Staphylococcus aureus [19] = test: Antibacterial activity against methicillin-resistant Staphylococcus aureus N315 assessed as increase in bactericidal effect at 2 to 8 ug/ml measured after 24 hrs by microplate reader assay; format: functional, organism-based; settings: dose 2-8 µg/ml
HEK-293T = test: Cytotoxicity against human HEK293T cells assessed as cell viability at 0.5 to 64 ug/ml incubated for 24 hrs by MTT assay; format: toxicity, cell-based; settings: dose 0.5-64 µg/ml
HeLa = test: Cytotoxicity against human HeLa cells assessed as cell viability at 0.5 to 64 ug/ml incubated for 24 hrs by MTT assay; format: toxicity, cell-based; settings: dose 0.5-64 µg/ml
[20] = Toxicity against Balb/c mouse assessed as body weight at 100 mg/kg, iv administered every 2 days measured after 1 week; format: organism-based; settings: in vivo, 168 h, time 1 weeks
Staphylococcus aureus [21] = test: Antibacterial activity against methicillin-resistant Staphylococcus aureus ATCC 43300 assessed as inhibition of bacterial growth incubated for 24 hrs by CLSI protocol based two fold serial dilution method; format: functional
Staphylococcus aureus [22] = test: Antibacterial activity against Staphylococcus aureus CMCC (B) 26003 assessed as inhibition of bacterial growth incubated for 24 hrs by CLSI protocol based two fold serial dilution method; format: functional
Staphylococcus aureus [23] = test: Antibacterial activity against Staphylococcus aureus CMCC (B) 26001 assessed as inhibition of bacterial growth incubated for 24 hrs by CLSI protocol based two fold serial dilution method; format: functional
Staphylococcus aureus [24] = test: Antibacterial activity against Staphylococcus aureus ATCC 12600 assessed as inhibition of bacterial growth incubated for 24 hrs by CLSI protocol based two fold serial dilution method; format: functional
Staphylococcus aureus [25] = test: Antibacterial activity against Staphylococcus aureus ATCC 6583 assessed as inhibition of bacterial growth incubated for 24 hrs by CLSI protocol based two fold serial dilution method; format: functional

| Structure (SMILES) | MIC (Staphylococcus aureus [1]) [µg/mL] | MIC (Enterococcus faecalis) [µg/mL] | MIC (Staphylococcus aureus [2]) [µg/mL] | MIC (Staphylococcus aureus [3]) [µg/mL] | MIC (Staphylococcus aureus [4]) [µg/mL] | MIC (Klebsiella pneumoniae) [µg/mL] | MIC (Escherichia coli [5]) [µg/mL] | MIC (Escherichia coli [6]) [µg/mL] | MIC (Pseudomonas aeruginosa [7]) [µg/mL] | MIC (Pseudomonas aeruginosa [8]) [µg/mL] | MIC (Acinetobacter baumannii) [µg/mL] | Activity (Pseudomonas aeruginosa [9]) | Activity (Staphylococcus aureus [10]) | Activity (Staphylococcus aureus [11]) | hemolysis at 1 h [13] [%] | Activity (Cell membrane [14]) | Activity (Cell membrane [15]) | Activity (Cell membrane [16]) | Activity (Staphylococcus aureus [17]) | further results |
| --- | --- | --- | --- | --- | --- | --- | --- | --- | --- | --- | --- | --- | --- | --- | --- | --- | --- | --- | --- | --- |
| CCn1c2ccccc2c2c(OCc3nnc(S)o3)cccc21 | 2 (≈ 6.15 µM) | 8 (≈ 24.6 µM) | 256 (≈ 787 µM) | 4 (≈ 12.3 µM) | 8 (≈ 24.6 µM) | 4 (≈ 12.3 µM) | 8 (≈ 24.6 µM) | 8 (≈ 24.6 µM) | 256 (≈ 787 µM) | 0.5 (≈ 1.54 µM) | 8 (≈ 24.6 µM) | Active | – | – | – | – | – | – | – | – |
| Sc1nnc(Cn2c3ccccc3c3c(OCC4CC4)cccc32)o1 | 0.5 (≈ 1.42 µM) | 2 (≈ 5.69 µM) | 256 (≈ 728 µM) | 4 (≈ 11.4 µM) | 1 (≈ 2.85 µM) | 4 (≈ 11.4 µM) | 2 (≈ 5.69 µM) | 1 (≈ 2.85 µM) | 256 (≈ 728 µM) | 4 (≈ 11.4 µM) | 4 (≈ 11.4 µM) | – | Active | Active | < 3 | Dde | Active | Active | Active | Activity (Staphylococcus aureus [12]): Active |
| Sc1nnc(Cn2c3ccccc3c3c(OCC4CCCCC4)cccc32)o1 | 0.25 (≈ 0.635 µM) | 4 (≈ 10.2 µM) | 256 (≈ 651 µM) | 4 (≈ 10.2 µM) | 4 (≈ 10.2 µM) | 4 (≈ 10.2 µM) | 1 (≈ 2.54 µM) | 0.25 (≈ 0.635 µM) | 128 (≈ 325 µM) | 4 (≈ 10.2 µM) | 0.5 (≈ 1.27 µM) | – | Active | Active | – | – | – | – | Active | Activity (Staphylococcus aureus [18]): Active; Activity (Erythrocyte): Toxic |
| C=CCOc1cccc2c1c1ccccc1n2Cc1nnc(S)o1 | 2 (≈ 5.93 µM) | 1 (≈ 2.96 µM) | 256 (≈ 759 µM) | 8 (≈ 23.7 µM) | 0.25 (≈ 0.741 µM) | 4 (≈ 11.9 µM) | 4 (≈ 11.9 µM) | 0.25 (≈ 0.741 µM) | 128 (≈ 379 µM) | 4 (≈ 11.9 µM) | 0.25 (≈ 0.741 µM) | – | – | Active | < 3 | Dde | Active | Active | Active | Activity (Staphylococcus aureus [19]): Active; Activity (HEK-293T): Non-Toxic; Activity (HeLa): Non-Toxic; Activity [20]: Non-Toxic; MIC (Staphylococcus aureus [21]): 0.25 µg/mL (≈ 0.741 µM); MIC (Staphylococcus aureus [22]): 0.25 µg/mL (≈ 0.741 µM); MIC (Staphylococcus aureus [23]): 0.25 µg/mL (≈ 0.741 µM); MIC (Staphylococcus aureus [24]): 0.25 µg/mL (≈ 0.741 µM); MIC (Staphylococcus aureus [25]): 0.25 µg/mL (≈ 0.741 µM) |
| Sc1nnc(COc2cccc3c2c2ccccc2n3CC2CC2)o1 | 0.5 (≈ 1.42 µM) | 8 (≈ 22.8 µM) | 256 (≈ 728 µM) | 4 (≈ 11.4 µM) | 8 (≈ 22.8 µM) | 4 (≈ 11.4 µM) | 4 (≈ 11.4 µM) | 1 (≈ 2.85 µM) | 256 (≈ 728 µM) | 1 (≈ 2.85 µM) | 16 (≈ 45.5 µM) | Active | Active | – | – | – | – | – | – | – |
